In patent US20090156638A1, “Uses of nordihydroguaiaretic acid (NDGA) and derivatives thereof in preventing transmission of sexually transmitted diseases” (priority 2007, published 2009):

What was measured:
[1] = in vivo, 45 mg/kg; cited from earlier work
[2] = Stability of M4N ointment formulation; assay type: physicochemical; details: 2% wt/wt ointment in white petrolatum, 5 mL containers
Description: Two dosing schemes were used.

[3] = Single dose s.c. rabbit irritation study
Description: 4 male and 2 female New Zealand White rabbits received single s.c. injections of saline (1 mL), DMSO (1 mL), 20 mg (0.1 mL) M4N, and 200 mg (1 mL) M4N at each of four sites. Mortality, clinical observations, body weights, dermal irritation, gross necropsy findings, and microscopic pathology were evaluated. […] All injection sites were preserved in 10% neutral-buffered formalin (NBF).

[4] = tested on: HSV-1
Description: The dorsal cutaneous guinea pig model system is a well-established model for HSV-1 infection.
In FIGS. 6A-6D, for topical treatment with M4N sections of shaved and depilated dorsal guinea pig skin were infected equally were infected with HSV-1.
McKrae strain). […] Treatments were administered twice daily and photogragphs were taken at day 6 post-infection. […] Regions 1 and 4 were infected with high levels of HSV-1 (1×10^8 pfu/mL), regions 2 and 5 were infected with moderate levels of HSV-1 (1×10^6 pfu/mL) and regions 3 and 6 were infected with low levels of HSV-1 (1×10^4 pfu/mL).

[5] = tested on: HPV 16; assay: HPV inhibition in C33A cells; assay type: cell-based; details: C-33-A, read-out: Inhibitory Concentration (IC50 or EC50)
[6] = tested on: HSV-2; assay: Mouse vaginal model of HSV-2 infection; assay type: in vivo, CF-1 mice; details: 20 mg/ml in Vaseline
Description: The efficacies of […] (FIG. 8A) and […] (FIG. 8A) against HSV-2 in a mouse vaginal model system have also been examined. […] At the end of three days, the vaginal lavages were collected from the washings of the vagina regions. The status of the vaginal HSV-2 infection and replication were examined by their cytopathic effects on cultured human foreskin fibroblast cells. Monitoring and scoring were carried out by three persons independently.

[7] = tested on: ICP4 gene of HSV; assay: Inhibition of HSV ICP4 gene transcription; assay type: cell-based, HSV-1; details: previously determined
Description: (§1) The […] (IE) ICP4 gene of HSV is essential for HSV replication.

[8] = tested on: HSV-1; assay: Mutation-insensitivity: IC50 against HSV-1 over ten virus passages; assay type: cell-based
Description: In contrast, host factors, unlike viral factors, are under no selective pressure to mutate and are in general structurally invariable. […] Table 1 compares the IC50 of M4N and acyclovir for ten passages.

[9] = Human safety, tolerability and pharmacokinetic study of M4N vaginal ointment
[10] = 14-day toxicity study in dogs, toxicokinetics; assay type: in vivo, beagle dogs; details: for highest mean plasma concentration: Day 14; for Tmax: read-out: median Tmax
Description: Three beagle dogs/sex/group received doses of 0 (0.50 mL/kg DMSO), 10, 50, and 100 mg/kg (0.05, 0.25, 0.5 mL/kg) M4N. Approximately 4 mL of blood was collected from the jugular vein at each sampling time point of 0.5, 1, 4, 8, and 12 hours after dosing on Days 1, 7, and 14. Three dogs/sex/group were rotated in ascending order for each dose group. Plasma was isolated and analyzed for M4N by HPLC assay.

[11] = 14-day toxicity study in rats, toxicokinetics; assay type: in vivo; details: for Tmax / Cmax: rat, plasma; for Tmax: 500 mg/kg; for Cmax: Group 10 (500 mg/kg), Day 14
Description: The toxicokinetics study consisted of four dose-groups (0, 50, 100, 500 mg/kg) with 6 animals/sex/group. Approximately 0.7 mL of blood was collected from the jugular vein from 3 rats/sex/group rotated in ascending order for each dose group at 0.5, 1, 4, 8, and 12 hours post-dose on Days 1, 7, and 14. Plasma was isolated and analyzed for M4N by HPLC assay.

[12] = mouse, in vivo
[13] = Fourteen day rabbit intravaginal irritation study
[14] = tested on: acyclovir-resistant strains of HSV-1 (HSV-1^R); details: Chen et al., FIG. 3; cited from earlier work
[15] = tested on: Sp1 regulated transcription of HPV E6/E7; assay: Sp1 regulated HPV E6/E7 transcription, luciferase assays and C3 tumor lines; assay type: cell-based; details: luciferase assays and HPV induced mouse cervical C3 tumor lines
Description: as §1

[16] = tested on: HIV-1; assay: microbe, parasite or virus in culture; details: Human immunodeficiency virus 1, IIIB, COS, read-out: Inhibitory Concentration (IC50 or EC50)
[17] = fourteen women, M4N ointment/placebo crossover
[18] = all samples, Days 1 and 7, LOQ 0.4000
[19] = rabbit vaginal irritation study

## COc1ccc(C[C@@H](C)[C@@H](C)Cc2ccc(OC)c(OC)c2)cc1OC [M4N, tetra-O-methyl-nordihydroguaiaretic acid]
[1]
  tolerability on intravenous administration: generally good tolerability
[2]
  time remained stable at room temperature: 6 months
[3]; rabbit, in vivo, sc
  histopathology of injection sites compared to DMSO vehicle sites: slight increase in the intensity of reactions
[3]; single s.c. injection, any dose group
  effect on body weight or mortality: No treatment-related effect
[4]; 170 μM, first treated 10 min, 24 h, 48 h, 72 h after infection
  efficacy by time of first treatment after infection: better efficacy when treatment commenced shortly, within 24, after infection
[4]; topical application, guinea pig
  inhibition of HSV-1 induced cutaneous lesion formation and viral shedding: effectively inhibited HSV-1 induced cutaneous lesion formation and viral shedding
[4]; topical, even at the highest soluble concentrations (150 mM)
  toxicity or dermal irritation: no evidence of toxicity or dermal irritation
[5]
  IC50: 30 µM
[6]
  infection in the other 4 mice: very little infection
  mice fully infected, out of 8 mice: 4
  score of the fully infected mice: 34
[7]
  inhibition of ICP4 gene transcription: effectively inhibit ICP4 gene transcription
[8]; Human alphaherpesvirus 1, HSV-1 passage 1
  IC50: 11.7 µM
[8]; Human alphaherpesvirus 1, HSV-1 passage 2
  IC50: 4.4 µM
[8]; Human alphaherpesvirus 1, HSV-1 passage 3
  IC50: 8.24 µM
[8]; Human alphaherpesvirus 1, HSV-1 passage 4
  IC50: 5.97 µM
[8]; Human alphaherpesvirus 1, HSV-1 passage 5
  IC50: 6.48 µM
[8]; Human alphaherpesvirus 1, HSV-1 passage 6
  IC50: 6.98 µM
[8]; Human alphaherpesvirus 1, HSV-1 passage 7
  IC50: 6.98 µM
[8]; Human alphaherpesvirus 1, HSV-1 passage 8
  IC50: 9.91 µM
[8]; Human alphaherpesvirus 1, HSV-1 passage 9
  IC50: 8.82 µM
[8]; Human alphaherpesvirus 1, HSV-1 passage 10
  IC50: 4.77 µM
[8]; following ten passages of virus
  change in IC50 against HSV-1: no increase in the IC50
[9]; 90 mg (2% wt/wt) intravaginally once per day for 7 days, healthy women
  tolerability: well tolerated
[9]; days 1 and 7, 1, 2, 4, 6 hours after dosing, lower limit of detection 1 ng/mL
  detection in serum pharmacokinetic samples: no detection of M4N
[9]; [17]
  abdominal pain reported: 1 subjects
  groin pain reported: 1 subjects
  headaches reported: 3 subjects
  tooth abscess reported: 1 subjects
  upper respiratory tract infection reported: 2 subjects
[9]; might have been caused by the M4N ointment
  application site irritation reported: 1 subjects
[10]; Group 3 (50 mg/kg)
  highest mean plasma concentration: 1.004 µg/mL
[10]; Group 3, Day 14
  AUClast, males relative to females: approximately 3 times
[10]; Group 3 females
  Tlast: 4 h
[10]; Group 4 (100 mg/kg)
  highest mean plasma concentration: 1.096 µg/mL
[10]; Group 4, Day 14
  AUClast, males relative to females: ~2 times
[10]; [18]
  plasma concentrations: < 400 ng/mL
[10]; both sexes, beagle, dog, plasma, Group 2 (10 mg/kg), Day 14, read-out: plasma concentration, only sample greater than LOQ
  concentration at 14 day: 471 ng/mL
[10]; both sexes, beagle, dog, plasma, Groups 3 and 4 except Group 3 males
  Tmax: 4 h
[10]; both sexes, beagle, dog, plasma, all groups
  Cmax: 1000 ng/mL
[10]; except Group 3 females
  median Tlast: 12 h
[10]; male, beagle, dog, plasma, 50 mg/kg, Group 3 males
  Tmax: 8 h
[11]; Group 10, Day 14
  AUClast, females relative to males: ~4 times
[11]; Groups 8 and 9, Day 14, LOQ 0.4000
  plasma concentrations: < 400 ng/mL
[11]; [18]
  plasma concentrations: < 400 ng/mL
[11]; female, females, Group 10, Day 14
  Tmax: 4 h
[11]; female, females
  Cmax: 537 ng/mL
[11]; females
  Tlast: 12 h
[11]; male, males, Group 10, Day 14
  Tmax: 0.5 h
[11]; male, males
  Cmax: 333 ng/mL
[11]; males
  Tlast: 8 h
[12]
  toxicity: no toxicity
[13]; 2% w/w intravaginal, 1 mL once daily for 14 days
  early deaths: no early deaths
[13]; Group 2
  gross pathology (enlarged liver, irregularly shaped femur, rabbit 32092): incidental findings and not test article related
[13]; Study Day 15, Group 2 (2% w/w), attributed to individual animal variation
  hematology vs controls: statistically significant lower absolute basophil count
[13]; Study Day 15, Group 2, attributed to individual animal variation
  clinical chemistry vs controls: statistically significant lower ALT
[13]; female rabbits, topical per vaginam
  cumulation after day 14 dosing: no resultant evidence of cumulation
[13]; female rabbits, topical per vaginam, 4 hours post first dose and day 14
  blood concentrations seen: ≤ 10 ng/mL
[13]; [19]
  start of absorption into the blood: 30 min
  time of peak absorption into the blood: 4 h
[13]; repeated intravaginal administration for 14 days
  effect on measured clinical pathology parameters: no apparent test article-related effect
[14]
  efficacy against acyclovir-resistant strains of HSV-1: retains complete efficacy
[15]
  reduction of Sp1 regulated transcription of HPV E6/E7: dramatically reduces Sp1 regulated transcription of HPV E6/E7
[16]
  IC50: 11 µM
